The results in this text go back to PubChem BioAssay (NCI).

Test systems include DU-145 prostate; SF-295 CNS; MDA-MB-231 breast; SK-OV-3 ovarian; UACC-257 melanoma; HOP-62 NSCLC; CAKI-1 renal; COLO 205 colon; K-562 leukemia; TK-10 renal.
What all share (assay): NCI tumour cell line growth inhibition, 48 h

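A five-concentration, 48-hour dose response in 96-well plates underlies each endpoint, interpolated linearly between surrounding concentrations. The concentration for 50% growth inhibition is given as GI50. Definition used: TGI = concentration required for complete inhibition of growth.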

Consider `C/C(=C(/c1ccccc1)c1ccc(OCC(O)CNCCN2CCOCC2)cc1)c1ccccc1` (stereo not given), for which the GI50 is 4.37 µM in the assay on DU-145 prostate; 1.92 µM in the assay with SF-295 CNS; 1.78 µM with MDA-MB-231 breast; 11.1 µM in the assay with SK-OV-3 ovarian; 2.02 µM with UACC-257 melanoma; 2.29 µM in the assay on HOP-62 NSCLC. Besides, the GI50 with CAKI-1 renal is 1.67 µM; in the assay on COLO 205 colon, 1.95 µM; with K-562 leukemia, 1.75 µM; in the assay on TK-10 renal, 2.69 µM. For the same compound, the TGI stood at 15.7 µM with DU-145 prostate; 3.63 µM in the assay with SF-295 CNS; 3.83 µM in the assay with MDA-MB-231 breast; 24.8 µM in the assay on SK-OV-3 ovarian; 4.07 µM in the assay with UACC-257 melanoma; 5.69 µM in the assay on HOP-62 NSCLC. In addition, the TGI with CAKI-1 renal came out at 3.49 µM; in the assay with COLO 205 colon it was 4.17 µM; in the assay on K-562 leukemia, 4.26 µM; in the assay on TK-10 renal it was 7.93 µM.
On to `COc1cc(OCc2cccc(-c3ccccc3)c2C)cc(OC)c1CN1CCCCC1C(=O)NCCOCCOCCN` (stereo not given), for which the GI50 with DU-145 prostate was 4.61 µM; in the assay with SF-295 CNS it was 2.03 µM; with MDA-MB-231 breast, 1.8 µM; in the assay with SK-OV-3 ovarian, 10.7 µM; in the assay on UACC-257 melanoma, 1.83 µM; in the assay on HOP-62 NSCLC, 2.3 µM. Besides, the GI50 with CAKI-1 renal was 1.94 µM; in the assay on COLO 205 colon, 1.82 µM; in the assay on K-562 leukemia it was 1.86 µM; in the assay with TK-10 renal, 2.48 µM. The TGI in the assay with DU-145 prostate was found to be 16.1 µM; in the assay on SF-295 CNS it was 4.23 µM; in the assay with MDA-MB-231 breast, 3.84 µM; in the assay on SK-OV-3 ovarian, 24 µM; in the assay on UACC-257 melanoma it was 3.68 µM; with HOP-62 NSCLC, 6.06 µM. Also, the TGI in the assay on CAKI-1 renal is 5.96 µM; in the assay with COLO 205 colon, 3.7 µM; in the assay on K-562 leukemia, 4.4 µM; in the assay on TK-10 renal it was 7.42 µM.
As to `COc1ccc2c(c1)CN([C@@H](C)[C@H]1CC[C@H]3[C@@H]4CC[C@H]5C[C@@H](O)CC[C@]5(C)[C@H]4CC[C@]13C)CO2`, the TGI came to 13.7 µM with DU-145 prostate; 2.98 µM in the assay on SF-295 CNS; 5.19 µM with MDA-MB-231 breast; 3.56 µM in the assay on SK-OV-3 ovarian; 6.31 µM in the assay on UACC-257 melanoma; 4 µM in the assay with HOP-62 NSCLC. Moreover, the TGI in the assay on CAKI-1 renal amounted to 13.8 µM; with COLO 205 colon, 3.85 µM; in the assay with K-562 leukemia, 2.37 µM; with TK-10 renal it was 8.32 µM.
For the compound `CCOC(=O)c1ccc(NC(=O)NC2=NCCS2)cc1`, the GI50 is 1.71 µM in the assay on DU-145 prostate; 0.619 µM in the assay with SF-295 CNS; 1.64 µM with MDA-MB-231 breast; 1.03 µM with SK-OV-3 ovarian; over 100 µM in the assay on UACC-257 melanoma; 1.75 µM in the assay on HOP-62 NSCLC. Further, the GI50 is 1.39 µM in the assay with CAKI-1 renal, 40.8 µM in the assay with COLO 205 colon, 10.5 µM in the assay on K-562 leukemia and over 100 µM in the assay with TK-10 renal. Moreover, the TGI with DU-145 prostate is over 100 µM; in the assay with SF-295 CNS, 6.13 µM; in the assay on MDA-MB-231 breast, over 100 µM; with SK-OV-3 ovarian it was 7.76 µM; with UACC-257 melanoma, over 100 µM; in the assay with HOP-62 NSCLC it was over 100 µM. For the same compound, the TGI in the assay on CAKI-1 renal, in the assay on COLO 205 colon, in the assay on K-562 leukemia and in the assay with TK-10 renal was over 100 µM each time.
For `CCCN(CCC)c1ccc(C=O)c(Cl)c1`, the GI50 in the assay with DU-145 prostate was 48 µM; in the assay with SF-295 CNS it was 3.87 µM; in the assay on MDA-MB-231 breast, 18.9 µM; with SK-OV-3 ovarian, 24.4 µM; in the assay with UACC-257 melanoma, 0.273 µM; with HOP-62 NSCLC, 13.3 µM. In addition, the GI50 was 15.1 µM in the assay with CAKI-1 renal, 4.2 µM in the assay with COLO 205 colon, 26.4 µM in the assay on K-562 leukemia and 0.262 µM with TK-10 renal. The TGI with DU-145 prostate was over 100 µM; in the assay on SF-295 CNS it was 29.2 µM; with MDA-MB-231 breast it was 43.7 µM; in the assay with SK-OV-3 ovarian, over 100 µM; in the assay on UACC-257 melanoma, 0.979 µM; in the assay with HOP-62 NSCLC, 64.9 µM. The TGI was over 66.9 µM in the assay with CAKI-1 renal, 17 µM in the assay on COLO 205 colon, over 100 µM with K-562 leukemia and 1.17 µM in the assay on TK-10 renal.
For the compound `COc1ccc(-c2c(C#N)c(N)nc(N3CCOCC3)c2C#N)cc1`, the GI50 is 27.3 µM with DU-145 prostate; 15 µM in the assay on SF-295 CNS; 11 µM in the assay with MDA-MB-231 breast; 4.99 µM in the assay with SK-OV-3 ovarian; 23.9 µM in the assay with UACC-257 melanoma; 14.8 µM with HOP-62 NSCLC. Further, the GI50 in the assay with CAKI-1 renal is 13 µM; in the assay on COLO 205 colon, 2.13 µM; with K-562 leukemia it was 34.5 µM; in the assay with TK-10 renal, 19.6 µM. The TGI in the assay with DU-145 prostate is over 100 µM; in the assay on SF-295 CNS it was 50.1 µM; in the assay on MDA-MB-231 breast, 35.1 µM; with SK-OV-3 ovarian it was 27.3 µM; in the assay on UACC-257 melanoma, 82.1 µM; in the assay on HOP-62 NSCLC it was 70.4 µM. The TGI in the assay with CAKI-1 renal was 31.8 µM; with COLO 205 colon, 26.5 µM; with K-562 leukemia it was over 100 µM; with TK-10 renal, 86.1 µM.
`CCOC(=O)c1sc(-c2ccc(OS(=O)(=O)C[C@]34CCC(CC3=O)C4(C)C)c(C=O)c2)nc1C`: the GI50 was 1.55 µM with DU-145 prostate; 1.16 µM in the assay with SF-295 CNS; 1.03 µM with MDA-MB-231 breast; 1.3 µM in the assay on SK-OV-3 ovarian; 1.26 µM in the assay on UACC-257 melanoma; 1.21 µM in the assay with HOP-62 NSCLC. The GI50 in the assay with CAKI-1 renal was 0.667 µM; in the assay with COLO 205 colon, 1.07 µM; in the assay on K-562 leukemia, 0.753 µM; in the assay on TK-10 renal, 0.721 µM. The TGI was over 50 µM with DU-145 prostate; 2.85 µM in the assay on SF-295 CNS; 2.66 µM in the assay on MDA-MB-231 breast; 4.09 µM in the assay with SK-OV-3 ovarian; 3.66 µM in the assay on UACC-257 melanoma; 3.27 µM in the assay on HOP-62 NSCLC. Moreover, the TGI with CAKI-1 renal is 2.67 µM; in the assay on COLO 205 colon it was 2.62 µM; with K-562 leukemia it was over 13.5 µM; with TK-10 renal, 4.48 µM.
Turning to `Nc1nc(N)c2cc(Sc3ccc4ccccc4c3)ccc2n1`, the TGI in the assay with DU-145 prostate is 6.01 µM; in the assay on SF-295 CNS, 4.91 µM; in the assay with MDA-MB-231 breast, 5.28 µM; with SK-OV-3 ovarian it was 17.5 µM; in the assay with UACC-257 melanoma, 4.61 µM; in the assay on HOP-62 NSCLC, 4.35 µM. Further, the TGI came out at 15.7 µM in the assay on CAKI-1 renal, 2.91 µM with COLO 205 colon, 1.88 µM with K-562 leukemia and 6.33 µM with TK-10 renal.
